Data published in PubChem BioAssay (NCI).
Several values for one entry are separate records, joined by “and”; a condition that tells them apart may be missing. Identical values can stand only once.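 Growth conditions: 96-well plates. Treatment: test compound, 48 hours, 5 concentrations. Analysis: linear interpolation between bracketing concentrations; unreached endpoints set to highest concentration. GI50 is the concentration that inhibits growth by half. TGI: total growth inhibition.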

Columns and labels:
Test in all cases: NCI tumour cell line growth inhibition, 48 h
OVCAR-8 ovarian = tested on: OVCAR-8 ovarian
HT29 colon = tested on: HT29 colon
HCT-15 colon = tested on: HCT-15 colon
MDA-MB-435 = tested on: MDA-MB-435
NCI-H460 lung = tested on: NCI-H460 lung
MOLT-4 leukemia = tested on: MOLT-4 leukemia
SN12C renal = tested on: SN12C renal
HS 578T breast = tested on: HS 578T breast
T-47D breast = tested on: T-47D breast
SF-295 CNS = tested on: SF-295 CNS

| Structure (SMILES) | TGI (OVCAR-8 ovarian) | TGI (HT29 colon) | TGI (HCT-15 colon) | TGI (MDA-MB-435) | TGI (NCI-H460 lung) | TGI (MOLT-4 leukemia) | TGI (SN12C renal) | TGI (HS 578T breast) | TGI (T-47D breast) | TGI (SF-295 CNS) | GI50 (OVCAR-8 ovarian) | GI50 (HT29 colon) | GI50 (MDA-MB-435) | GI50 (MOLT-4 leukemia) | GI50 (SN12C renal) | GI50 (HS 578T breast) | GI50 (T-47D breast) | GI50 (SF-295 CNS) |
| --- | --- | --- | --- | --- | --- | --- | --- | --- | --- | --- | --- | --- | --- | --- | --- | --- | --- | --- |
| CN(C)CCNc1nc2ccccc2c2c1C(=O)c1ccccc1-2 | 2.26 µM | 3.5 µM | 1.57 µM | 1.12 µM | 0.415 µM | 0.098 µM | 0.45 µM | 24.3 µM | 4.12 µM | 3.31 µM |  |  |  |  |  |  |  |  |
| Cn1c(=O)c2[nH]c(N/N=C3/SCC(=O)N3Cc3ccccc3)nc2n(C)c1=O | > 100 µM | > 100 µM | > 100 µM | 50.1 µM | > 100 µM | > 100 µM | > 100 µM | > 100 µM | > 100 µM | > 100 µM |  |  |  |  |  |  |  |  |
| C=C(CCC(C(=O)O)C1CCC2(C)C3=C(CCC12C)C1(C)CCC(O)C(C)(C)C1CC3)C(C)C (stereo not drawn) | 47.2 µM | > 100 µM | 68.5 µM | > 100 µM | 37.5 µM | > 100 µM | > 100 µM | > 100 µM | > 100 µM | > 100 µM |  |  |  |  |  |  |  |  |
| c1csc(-c2ccc(-c3ccc(-c4cccs4)s3)s2)c1 | > 100 µM | > 100 µM | > 100 µM | > 100 µM | > 100 µM | > 100 µM | > 100 µM | > 100 µM | > 100 µM | > 100 µM |  |  |  |  |  |  |  |  |
| COc1ccc(C=O)cc1Oc1ccc(C[C@H]2c3c(cc(OC)c4c3Oc3cc5c(cc3O4)CCN(C)C5=O)CCN2C)cc1 | 15.2 µM | 14.4 µM | 27.5 µM | 21.7 µM | 16 µM | 21.7 µM | 43 µM | 21.7 µM | > 50 µM | 16.3 µM |  |  |  |  |  |  |  |  |
| O=C(O)CNC(=O)c1cccc2c(=O)c3ccccc3[nH]c12 | > 100 µM | > 100 µM | > 100 µM | > 100 µM | > 100 µM | > 100 µM | > 100 µM | > 100 µM | > 100 µM | > 100 µM |  |  |  |  |  |  |  |  |
| CCCCCCCC(CC(=O)O)OC(=O)CC(CCCCCCC)OC1OC(C)C(O)C(O)C1OC1OC(C)C(O)C(O)C1O (stereo not drawn) | > 100 µM | > 100 µM | > 100 µM | > 100 µM | > 100 µM | > 100 µM | > 100 µM | > 100 µM | > 100 µM | > 100 µM |  |  |  |  |  |  |  |  |
| CC(=O)Nc1ncc2c(n1)-c1ccccc1OC2 | > 100 µM | > 100 µM | > 100 µM | > 100 µM | > 100 µM | > 100 µM | > 100 µM | 94.4 µM | > 100 µM | > 100 µM |  |  |  |  |  |  |  |  |
| CSc1s[s+]c(SC)c1-c1ccccc1 | 40.3 µM | 32.3 µM | 41.5 µM | 36 µM | > 100 µM | > 100 µM | 35 µM | 86.9 µM | > 100 µM | 36.9 µM |  |  |  |  |  |  |  |  |
| COc1ccc(C[C@H]2COC(=O)[C@@H]2Cc2cc(OC)c(OC)c(OC)c2)cc1OC | > 100 µM | > 100 µM | > 100 µM | > 100 µM | > 100 µM | > 100 µM | > 100 µM | > 100 µM | > 65.2 µM | > 100 µM |  |  |  |  |  |  |  |  |
| Cc1cc(S(=O)(=O)NC(=NCC(=O)NN)NN)c(S)cc1Cl | > 10 µM | > 10 µM | > 10 µM | > 10 µM | > 10 µM | > 10 µM | > 10 µM | > 10 µM | > 10 µM | > 10 µM |  |  |  |  |  |  |  |  |
| COCCCN1C(=O)C2c3[nH]c4ccccc4c3C3CCC(C(C)(C)C)CC3C2C1=O (stereo not drawn) | > 100 µM | 34 µM | 44.7 µM | > 100 µM | 36.2 µM | 70 µM | 50 µM | 87.6 µM | > 100 µM | 56.3 µM |  |  |  |  |  |  |  |  |
| CN1C/C(=C\c2ccccc2[N+](=O)[O-])C(=O)/C(=C/c2ccccc2[N+](=O)[O-])C1 | 0.328 µM and 1.85 µM | 0.325 µM and 0.409 µM | 0.527 µM and 0.696 µM | 3.1 µM and 0.706 µM | 4.56 µM and 8.89 µM | 1.02 µM and 0.572 µM | 4.88 µM and 2.22 µM | 24 µM and 3.42 µM | 4.47 µM and 2.08 µM | 13.7 µM and 7 µM | 0.175 µM and 0.517 µM | 0.173 µM and 0.169 µM | 0.86 µM and 0.254 µM | 0.308 µM | 1.98 µM and 0.809 µM | 1.97 µM and 0.759 µM | 1.01 µM and 0.354 µM | 5.62 µM and 2.46 µM |
| C=CCOn1c(C=C)nc2c(C)cccc21 | > 100 µM | 11.6 µM | 13.9 µM | 3.4 µM | 5.04 µM | 17 µM | 13.2 µM | > 100 µM | 7.25 µM | 21 µM |  |  |  |  |  |  |  |  |
| COC(=O)C(Cc1ccccc1)NC(=O)CCCNC(=O)OCc1ccccc1 (stereo not drawn) | > 100 µM | > 100 µM | > 100 µM | > 100 µM | > 100 µM | > 100 µM | > 100 µM | > 100 µM | > 100 µM | > 100 µM |  |  |  |  |  |  |  |  |
| Cc1nn(C(=O)c2ccccc2O)c2c1C(c1ccc(O)cc1)SC(N)=N2 (stereo not drawn) | > 10 µM | > 10 µM | > 10 µM | > 10 µM | > 10 µM | > 10 µM | > 10 µM | > 10 µM | 9.72 µM | > 10 µM |  |  |  |  |  |  |  |  |
| CC(=O)OCC1OC(n2c3c(c(-c4ccco4)c(C#N)c2=S)CCCC3)C(OC(C)=O)C(OC(C)=O)C1OC(C)=O (stereo not drawn) | > 100 µM | > 31.6 µM | > 31.6 µM | > 100 µM | > 31.6 µM | > 31.6 µM | > 31.6 µM | 85.6 µM | > 31.6 µM | 21.5 µM |  |  |  |  |  |  |  |  |
| CNC(=O)OCC1=C(COC(=O)NC)CN(c2ccccc2)C1 | > 100 µM | > 100 µM | > 100 µM | > 100 µM | > 100 µM | > 100 µM | > 100 µM | > 100 µM | > 100 µM | > 100 µM |  |  |  |  |  |  |  |  |
